From patent US20090075949A1, “Use of dipyridamole in combination with antithrombotics for treatment and prevention of thromboembolic diseases” (priority 2004, published 2009)

Experiments:
[1] = arterial circulation of the brain, rabbit model; cited from earlier work
activated platelets = assay: Annexin V binding after incubation of cells with DIP; assay type: cell-based
[2] = ESPS-2; compared with low-dose aspirin / aspirin alone; cited from earlier work
[3] = local formation of fibrin in experimental animals after angioplasty; assay type: in vivo

OCCN(CCO)c1nc(N2CCCCC2)c2nc(N(CCO)CCO)nc(N3CCCCC3)c2n1 [dipyridamole, 2,6-bis(diethanolamino)-4,8-dipiperidino-pyrimido[5,4-d]pyrimidine]
thrombus formation [1]: reduce thrombus formation
binding of Annexin V to the surface of activated platelets (activated platelets; activated platelets): reduce the binding of Annexin V
Annexin V binding sites (activated platelets; incubation of cells, compared to pre-incubation, patients with anti-platelet therapy resistance (ASA or clopidogrel)): significant reduction
reduction of stroke risk [2]: as effective as low-dose aspirin
inhibition of fibrin formation versus full dose heparin ([3]; experimental animals after angioplasty): exceeds the level of inhibition by full dose anticoagulant treatment with heparin
local formation of fibrin ([3]; pretreatment, arterial tree, high flow rate): reduces the local formation of fibrin significantly
